According to ChEMBL document CHEMBL4507279, “Data for DCP probe BI-9627” (2021):
pKi: −log10 of the molar value.

Key:
[1] = molecular target: Alpha-1D adrenergic receptor (Homo sapiens, UniProt P25100); assay: GPCRScan assay: inhibition of Alpha1D; design: radioligand conc. used [nm] 0.3 – 1.0, parental cells stable
[2] = test system: Tyrosine-protein kinase ABL1 (Homo sapiens), P00519 [F317I]; conditions: Compound concentration 1000.0 nM
[3] = molecular target: Activin receptor type-1 (Homo sapiens) (UniProt Q04771); conditions: Compound concentration 1000.0 nM
[4] = molecular target: Activin receptor type-2B (Homo sapiens) (UniProt Q13705); conditions: Compound concentration 1000.0 nM
[5] = molecular target: Aurora kinase C (Homo sapiens) (UniProt Q9UQB9); conditions: Compound concentration 1000.0 nM
[6] = molecular target: Bone morphogenetic protein receptor type-2 (Homo sapiens) (UniProt Q13873); conditions: Compound concentration 1000.0 nM
[7] = molecular target: Calcium/calmodulin-dependent protein kinase type II subunit beta (Homo sapiens) (UniProt Q13554); conditions: Compound concentration 1000.0 nM
[8] = molecular target: Cyclin-dependent kinase 11A (Homo sapiens) (UniProt Q9UQ88); conditions: Compound concentration 1000.0 nM
[9] = molecular target: Casein kinase I isoform epsilon (Homo sapiens) (UniProt P49674); conditions: Compound concentration 1000.0 nM
[10] = molecular target: Casein kinase I isoform gamma-2 (Homo sapiens) (UniProt P78368); conditions: Compound concentration 1000.0 nM
Chain of Casein kinase I isoform gamma-2 (Homo sapiens) (P78368 whole entry, looked up, canonical isoform): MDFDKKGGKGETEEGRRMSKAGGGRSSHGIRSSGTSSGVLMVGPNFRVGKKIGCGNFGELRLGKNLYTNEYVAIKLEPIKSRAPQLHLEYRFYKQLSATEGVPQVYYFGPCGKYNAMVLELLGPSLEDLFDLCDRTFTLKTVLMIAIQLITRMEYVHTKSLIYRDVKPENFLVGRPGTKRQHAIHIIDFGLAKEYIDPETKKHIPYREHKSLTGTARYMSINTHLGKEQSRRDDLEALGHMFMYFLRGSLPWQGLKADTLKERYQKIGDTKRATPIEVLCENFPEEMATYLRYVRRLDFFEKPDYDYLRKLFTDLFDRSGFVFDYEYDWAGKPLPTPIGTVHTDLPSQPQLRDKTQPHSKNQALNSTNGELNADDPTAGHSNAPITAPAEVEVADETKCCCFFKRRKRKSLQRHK

[11] = molecular target: Dual specificity tyrosine-phosphorylation-regulated kinase 1A (Homo sapiens) (UniProt Q13627); conditions: Compound concentration 1000.0 nM
[12] = molecular target: Ephrin type-A receptor 4 (Homo sapiens) (UniProt P54764); conditions: Compound concentration 1000.0 nM
[13] = molecular target: Ephrin type-A receptor 8 (Homo sapiens) (UniProt P29322); conditions: Compound concentration 1000.0 nM
[14] = molecular target: Serine/threonine-protein kinase/endoribonuclease IRE1 (Homo sapiens) (UniProt O75460); conditions: Compound concentration 1000.0 nM
[15] = molecular target: Focal adhesion kinase 1 (Homo sapiens) (UniProt Q05397); conditions: Compound concentration 1000.0 nM
[16] = molecular target: Cyclin-G-associated kinase (Homo sapiens) (UniProt O14976); conditions: Compound concentration 1000.0 nM
[17] = molecular target: Insulin receptor (Homo sapiens) (UniProt P06213); conditions: Compound concentration 1000.0 nM
[18] = molecular target: Interleukin-1 receptor-associated kinase 4 (Homo sapiens) (UniProt Q9NWZ3); conditions: Compound concentration 1000.0 nM
[19] = molecular target: Mitogen-activated protein kinase 9 (Homo sapiens) (UniProt P45984); conditions: Compound concentration 1000.0 nM
[20] = molecular target: Mitogen-activated protein kinase 10 (Homo sapiens) (UniProt P53779); conditions: Compound concentration 1000.0 nM
[21] = molecular target: Mitogen-activated protein kinase kinase kinase 3 (Homo sapiens) (UniProt Q99759); conditions: Compound concentration 1000.0 nM
[22] = molecular target: Mitogen-activated protein kinase kinase kinase kinase 2 (Homo sapiens) (UniProt Q12851); conditions: Compound concentration 1000.0 nM
[23] = molecular target: Dual specificity mitogen-activated protein kinase kinase 4 (Homo sapiens) (UniProt P45985); conditions: Compound concentration 1000.0 nM
[24] = molecular target: MAP kinase-interacting serine/threonine-protein kinase 1 (Homo sapiens) (UniProt Q9BUB5); conditions: Compound concentration 1000.0 nM
[25] = molecular target: Myosin light chain kinase (Homo sapiens) (UniProt Q32MK0); conditions: Compound concentration 1000.0 nM
[26] = molecular target: Macrophage-stimulating protein receptor (Homo sapiens) (UniProt Q04912); conditions: Compound concentration 1000.0 nM
Chain of Macrophage-stimulating protein receptor (Homo sapiens) (Q04912 25-304 limits assumed): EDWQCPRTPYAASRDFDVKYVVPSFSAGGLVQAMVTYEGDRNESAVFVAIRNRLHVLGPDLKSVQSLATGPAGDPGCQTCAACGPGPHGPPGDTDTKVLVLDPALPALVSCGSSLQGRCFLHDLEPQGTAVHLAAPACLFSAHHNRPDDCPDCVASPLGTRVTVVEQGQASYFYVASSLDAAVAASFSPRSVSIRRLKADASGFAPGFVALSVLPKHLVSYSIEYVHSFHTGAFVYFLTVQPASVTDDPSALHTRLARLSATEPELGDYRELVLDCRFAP
Chain of Macrophage-stimulating protein receptor (Homo sapiens) (Q04912 310-1400 limits assumed): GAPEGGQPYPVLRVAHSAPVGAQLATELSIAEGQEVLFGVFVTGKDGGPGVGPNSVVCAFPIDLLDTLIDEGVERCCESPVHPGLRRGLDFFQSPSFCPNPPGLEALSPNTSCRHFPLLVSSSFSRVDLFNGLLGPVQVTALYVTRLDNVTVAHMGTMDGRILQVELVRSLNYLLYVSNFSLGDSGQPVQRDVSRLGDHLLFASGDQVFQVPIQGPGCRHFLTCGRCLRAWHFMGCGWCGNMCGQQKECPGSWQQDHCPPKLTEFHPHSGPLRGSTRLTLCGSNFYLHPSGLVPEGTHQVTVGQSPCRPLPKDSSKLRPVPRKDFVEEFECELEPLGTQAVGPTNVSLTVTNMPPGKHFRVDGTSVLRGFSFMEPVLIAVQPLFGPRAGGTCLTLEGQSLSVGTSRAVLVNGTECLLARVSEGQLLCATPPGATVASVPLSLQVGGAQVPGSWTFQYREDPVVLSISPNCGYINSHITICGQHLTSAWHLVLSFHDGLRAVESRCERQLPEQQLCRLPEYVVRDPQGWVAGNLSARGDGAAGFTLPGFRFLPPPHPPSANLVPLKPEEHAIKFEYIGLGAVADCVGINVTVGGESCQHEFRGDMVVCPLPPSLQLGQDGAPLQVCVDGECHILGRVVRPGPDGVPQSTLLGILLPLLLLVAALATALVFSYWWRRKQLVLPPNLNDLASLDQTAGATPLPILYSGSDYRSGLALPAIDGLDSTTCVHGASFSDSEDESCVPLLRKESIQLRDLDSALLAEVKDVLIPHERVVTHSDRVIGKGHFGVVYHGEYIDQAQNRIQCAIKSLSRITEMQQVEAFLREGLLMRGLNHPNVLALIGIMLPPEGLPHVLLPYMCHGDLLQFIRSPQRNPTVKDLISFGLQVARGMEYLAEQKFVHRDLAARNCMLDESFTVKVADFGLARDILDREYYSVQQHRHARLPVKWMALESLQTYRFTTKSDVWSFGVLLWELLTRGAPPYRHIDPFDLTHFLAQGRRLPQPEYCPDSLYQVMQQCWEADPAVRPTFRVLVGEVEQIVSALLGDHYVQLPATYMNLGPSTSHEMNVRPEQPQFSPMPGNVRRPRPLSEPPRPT

[27] = molecular target: Serine/threonine-protein kinase Nek4 (Homo sapiens) (UniProt P51957); conditions: Compound concentration 1000.0 nM
Chain of Serine/threonine-protein kinase Nek4 (Homo sapiens) (P51957 whole entry, looked up): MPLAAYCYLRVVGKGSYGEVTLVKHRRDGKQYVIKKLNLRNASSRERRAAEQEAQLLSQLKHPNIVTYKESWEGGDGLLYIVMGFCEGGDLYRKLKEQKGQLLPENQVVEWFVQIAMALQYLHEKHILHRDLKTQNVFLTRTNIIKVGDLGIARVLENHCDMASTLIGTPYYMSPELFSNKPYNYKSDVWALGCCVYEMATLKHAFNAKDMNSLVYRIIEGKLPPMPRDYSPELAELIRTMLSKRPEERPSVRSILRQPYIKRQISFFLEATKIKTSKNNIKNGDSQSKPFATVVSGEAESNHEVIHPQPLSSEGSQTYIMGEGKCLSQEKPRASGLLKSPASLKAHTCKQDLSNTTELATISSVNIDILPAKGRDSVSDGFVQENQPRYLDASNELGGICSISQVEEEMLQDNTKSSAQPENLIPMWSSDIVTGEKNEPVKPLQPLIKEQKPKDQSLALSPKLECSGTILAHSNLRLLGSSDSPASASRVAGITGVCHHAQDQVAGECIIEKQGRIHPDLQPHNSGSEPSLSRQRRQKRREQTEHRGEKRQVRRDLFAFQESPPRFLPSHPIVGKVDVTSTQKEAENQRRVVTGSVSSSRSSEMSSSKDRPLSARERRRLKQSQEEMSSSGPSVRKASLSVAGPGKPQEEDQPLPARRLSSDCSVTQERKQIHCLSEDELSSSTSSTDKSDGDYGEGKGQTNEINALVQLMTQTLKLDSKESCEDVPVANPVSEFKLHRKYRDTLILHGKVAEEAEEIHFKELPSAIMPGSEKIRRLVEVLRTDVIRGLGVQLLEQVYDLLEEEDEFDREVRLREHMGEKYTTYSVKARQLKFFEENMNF

[28] = molecular target: 3-phosphoinositide-dependent protein kinase 1 (Homo sapiens) (UniProt O15530); conditions: Compound concentration 1000.0 nM
[29] = test system: Phosphatidylinositol 4,5-bisphosphate 3-kinase catalytic subunit alpha isoform (Homo sapiens), P42336 [C420R]; conditions: Compound concentration 1000.0 nM
Chain of Phosphatidylinositol 4,5-bisphosphate 3-kinase catalytic subunit alpha isoform (Homo sapiens), P42336 [C420R] (P42336 whole entry C420R, canonical isoform): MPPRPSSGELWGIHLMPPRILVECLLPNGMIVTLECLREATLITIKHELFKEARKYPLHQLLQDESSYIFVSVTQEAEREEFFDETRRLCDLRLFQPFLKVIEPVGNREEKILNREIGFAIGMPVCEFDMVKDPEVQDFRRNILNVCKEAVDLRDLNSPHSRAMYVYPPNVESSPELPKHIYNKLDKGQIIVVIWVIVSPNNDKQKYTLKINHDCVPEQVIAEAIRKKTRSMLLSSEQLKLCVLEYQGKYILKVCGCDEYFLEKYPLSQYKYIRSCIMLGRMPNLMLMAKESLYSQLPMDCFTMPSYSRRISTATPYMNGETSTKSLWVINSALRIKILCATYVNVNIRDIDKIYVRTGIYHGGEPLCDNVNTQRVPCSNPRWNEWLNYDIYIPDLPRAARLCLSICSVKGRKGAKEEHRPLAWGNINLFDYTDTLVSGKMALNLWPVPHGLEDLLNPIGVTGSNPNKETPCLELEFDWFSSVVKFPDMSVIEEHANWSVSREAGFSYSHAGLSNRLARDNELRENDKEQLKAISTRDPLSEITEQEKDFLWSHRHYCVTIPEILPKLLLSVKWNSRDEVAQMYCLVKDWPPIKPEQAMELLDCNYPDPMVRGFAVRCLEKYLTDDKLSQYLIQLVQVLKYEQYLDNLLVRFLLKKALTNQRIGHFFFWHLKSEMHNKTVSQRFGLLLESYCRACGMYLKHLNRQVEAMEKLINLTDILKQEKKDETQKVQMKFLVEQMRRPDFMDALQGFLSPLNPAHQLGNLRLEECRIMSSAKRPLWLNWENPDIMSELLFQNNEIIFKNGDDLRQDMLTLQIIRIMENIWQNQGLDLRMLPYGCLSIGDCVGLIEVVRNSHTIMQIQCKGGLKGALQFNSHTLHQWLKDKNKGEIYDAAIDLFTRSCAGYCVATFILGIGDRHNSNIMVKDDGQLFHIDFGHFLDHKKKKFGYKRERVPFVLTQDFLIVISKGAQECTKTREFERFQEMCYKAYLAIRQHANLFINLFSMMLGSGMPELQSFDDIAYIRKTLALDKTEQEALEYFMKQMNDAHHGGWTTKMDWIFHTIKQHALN

[30] = molecular target: Phosphatidylinositol 4,5-bisphosphate 3-kinase catalytic subunit delta isoform (Homo sapiens) (UniProt O00329); conditions: Compound concentration 1000.0 nM
[31] = molecular target: Serine/threonine-protein kinase pim-1 (Homo sapiens) (UniProt P11309); conditions: Compound concentration 1000.0 nM
[32] = molecular target: Serine/threonine-protein kinase N1 (Homo sapiens) (UniProt Q16512); conditions: Compound concentration 1000.0 nM
Chain of Serine/threonine-protein kinase N1 (Homo sapiens) (Q16512 2-942 limits assumed): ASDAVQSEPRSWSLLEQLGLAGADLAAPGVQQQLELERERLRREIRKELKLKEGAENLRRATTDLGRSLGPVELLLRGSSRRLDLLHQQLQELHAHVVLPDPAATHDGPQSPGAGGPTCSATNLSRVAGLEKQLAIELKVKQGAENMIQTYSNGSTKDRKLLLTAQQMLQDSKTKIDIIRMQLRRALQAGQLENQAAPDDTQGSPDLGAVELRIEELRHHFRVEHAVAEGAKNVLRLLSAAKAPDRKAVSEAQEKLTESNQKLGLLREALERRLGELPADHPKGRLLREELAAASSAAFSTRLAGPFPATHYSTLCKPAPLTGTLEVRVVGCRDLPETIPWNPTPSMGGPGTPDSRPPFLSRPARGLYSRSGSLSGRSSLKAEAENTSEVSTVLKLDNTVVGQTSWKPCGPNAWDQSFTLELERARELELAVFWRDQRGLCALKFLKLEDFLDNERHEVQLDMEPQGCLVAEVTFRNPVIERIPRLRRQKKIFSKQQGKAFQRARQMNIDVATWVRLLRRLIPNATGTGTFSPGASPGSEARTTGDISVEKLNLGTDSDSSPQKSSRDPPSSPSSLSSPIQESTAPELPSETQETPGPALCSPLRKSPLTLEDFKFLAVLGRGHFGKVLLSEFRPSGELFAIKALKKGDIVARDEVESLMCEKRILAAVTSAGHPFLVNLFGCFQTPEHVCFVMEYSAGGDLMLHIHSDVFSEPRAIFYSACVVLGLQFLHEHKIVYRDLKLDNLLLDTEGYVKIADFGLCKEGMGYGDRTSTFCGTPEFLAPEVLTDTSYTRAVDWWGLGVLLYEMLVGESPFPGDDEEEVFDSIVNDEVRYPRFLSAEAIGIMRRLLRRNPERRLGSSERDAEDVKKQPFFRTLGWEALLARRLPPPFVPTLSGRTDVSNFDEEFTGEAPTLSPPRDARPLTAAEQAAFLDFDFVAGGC

[33] = molecular target: cAMP-dependent protein kinase catalytic subunit PRKX (Homo sapiens) (UniProt P51817); conditions: Compound concentration 1000.0 nM
[34] = test system: Proto-oncogene tyrosine-protein kinase receptor Ret (Homo sapiens), P07949 [V804L]; conditions: Compound concentration 1000.0 nM
[35] = molecular target: Receptor-interacting serine/threonine-protein kinase 2 (Homo sapiens) (UniProt O43353); conditions: Compound concentration 1000.0 nM
[36] = molecular target: Serine/threonine-protein kinase Sgk1 (Homo sapiens) (UniProt O00141); conditions: Compound concentration 1000.0 nM
[37] = molecular target: Uncharacterized serine/threonine-protein kinase SBK3 (Homo sapiens) (UniProt P0C264); conditions: Compound concentration 1000.0 nM
[38] = molecular target: NUAK family SNF1-like kinase 2 (Homo sapiens) (UniProt Q9H093); conditions: Compound concentration 1000.0 nM
[39] = molecular target: SRSF protein kinase 1 (Homo sapiens) (UniProt Q96SB4); conditions: Compound concentration 1000.0 nM
[40] = molecular target: Serine/threonine-protein kinase 35 (Homo sapiens) (UniProt Q8TDR2); conditions: Compound concentration 1000.0 nM
[41] = molecular target: TRAF2 and NCK-interacting protein kinase (Homo sapiens) (UniProt Q9UKE5); conditions: Compound concentration 1000.0 nM
[42] = molecular target: Non-receptor tyrosine-protein kinase TNK1 (Homo sapiens) (UniProt Q13470); conditions: Compound concentration 1000.0 nM
[43] = molecular target: Serine/threonine-protein kinase WNK2 (Homo sapiens) (UniProt Q9Y3S1); conditions: Compound concentration 1000.0 nM
[44] = molecular target: 5-hydroxytryptamine receptor 1B (Homo sapiens) (UniProt P28222); conditions: Compound concentration 10.0 uM
Chain of 5-hydroxytryptamine receptor 1B (Homo sapiens) (P28222 whole entry): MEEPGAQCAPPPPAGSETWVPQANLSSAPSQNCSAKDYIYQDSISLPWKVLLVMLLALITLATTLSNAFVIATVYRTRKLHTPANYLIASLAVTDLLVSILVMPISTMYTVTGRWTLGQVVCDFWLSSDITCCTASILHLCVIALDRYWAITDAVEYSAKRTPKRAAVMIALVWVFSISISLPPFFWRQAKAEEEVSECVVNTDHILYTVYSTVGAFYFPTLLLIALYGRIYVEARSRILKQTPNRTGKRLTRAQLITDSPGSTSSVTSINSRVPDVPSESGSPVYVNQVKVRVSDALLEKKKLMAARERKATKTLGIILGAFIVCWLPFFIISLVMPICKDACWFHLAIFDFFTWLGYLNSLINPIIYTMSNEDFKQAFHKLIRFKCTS

[45] = molecular target: Mu-type opioid receptor (Homo sapiens) (UniProt P35372); conditions: Compound concentration 10.0 uM

## CC(=O)N1CCC(c2ccc(C(=O)NC3=NCCN3)cc2C(F)(F)F)CC1 [BI 0054]
[1]
  pKi: 5.00
[2]
  residual activity: 77%
[3]
  residual activity: 100%
[4]
  residual activity: 100%
[5]
  residual activity: 100%
[6]
  residual activity: 100%
[7]
  residual activity: 88%
[8]
  residual activity: 100%
[9]
  residual activity: 100%
[10]
  residual activity: 100%
[11]
  residual activity: 74%
[12]
  residual activity: 100%
[13]
  residual activity: 93%
[14]
  residual activity: 60%
[15]
  residual activity: 17%
[16]
  residual activity: 97%
[17]
  residual activity: 100%
[18]
  residual activity: 89%
[19]
  residual activity: 92%
[20]
  residual activity: 100%
[21]
  residual activity: 100%
[22]
  residual activity: 100%
[23]
  residual activity: 100%
[24]
  residual activity: 100%
[25]
  residual activity: 100%
[26]
  residual activity: 80%
[27]
  residual activity: 100%
[28]
  residual activity: 94%
[29]
  residual activity: 93%
[30]
  residual activity: 100%
[31]
  residual activity: 100%
[32]
  residual activity: 100%
[33]
  residual activity: 100%
[34]
  residual activity: 100%
[35]
  residual activity: 100%
[36]
  residual activity: 100%
[37]
  residual activity: 100%
[38]
  residual activity: 90%
[39]
  residual activity: 100%
[40]
  residual activity: 100%
[41]
  residual activity: 68%
[42]
  residual activity: 84%
[43]
  residual activity: 100%
[44]
  inhibition: 37.8%
[45]
  inhibition: -2.53%

## CC(=O)N1CCC(c2ccc(C(=O)NC(=N)N)cc2C(F)(F)F)CC1 [BI 9627]
[1]
  pKi: 5.00
[2]
  residual activity: 92%
[3]
  residual activity: 100%
[4]
  residual activity: 100%
[5]
  residual activity: 100%
[6]
  residual activity: 100%
[7]
  residual activity: 100%
[8]
  residual activity: 92%
[9]
  residual activity: 100%
[10]
  residual activity: 100%
[11]
  residual activity: 74%
[12]
  residual activity: 100%
[13]
  residual activity: 100%
[14]
  residual activity: 100%
[15]
  residual activity: 100%
[16]
  residual activity: 100%
[17]
  residual activity: 100%
[18]
  residual activity: 100%
[19]
  residual activity: 95%
[20]
  residual activity: 100%
[21]
  residual activity: 90%
[22]
  residual activity: 100%
[23]
  residual activity: 95%
[24]
  residual activity: 100%
[25]
  residual activity: 100%
[26]
  residual activity: 97%
[27]
  residual activity: 100%
[28]
  residual activity: 100%
[29]
  residual activity: 100%
[30]
  residual activity: 34%
[31]
  residual activity: 100%
[32]
  residual activity: 87%
[33]
  residual activity: 100%
[34]
  residual activity: 97%
[35]
  residual activity: 100%
[36]
  residual activity: 100%
[37]
  residual activity: 100%
[38]
  residual activity: 100%
[39]
  residual activity: 86%
[40]
  residual activity: 100%
[41]
  residual activity: 100%
[42]
  residual activity: 89%
[43]
  residual activity: 98%
[44]
  inhibition: 14.6%
[45]
  inhibition: 8.98%
